Assay results from ChEMBL document CHEMBL4130422, “Design, synthesis and biological evaluation of novel C-29 carbamate celastrol derivatives as potent and selective cytotoxic compounds” (Eur J Med Chem, 2017).
pIC50: −log10 of the molar value. Each block holds one molecule with its values, some of them ahead of it. Active and inactive are the calls of the source. No cut-off for these calls is given here.

How the values were obtained:
[1] = test system: A549; assay: Antiproliferative activity against human A549 cells after 72 hrs by MTT assay; assay type: functional, cell-based; settings: A549, 72 h
[2] = test system: MIA PaCa-2; assay: Antiproliferative activity against human MIAPaCa2 cells after 72 hrs by MTT assay; assay type: functional, cell-based; settings: MIA PaCa-2, 72 h
[3] = test system: MCF7; assay: Antiproliferative activity against human MCF7 cells after 72 hrs by MTT assay; assay type: functional, cell-based; settings: MCF7, 72 h
[4] = test system: HT-29; assay: Antiproliferative activity against human HT-29 cells after 72 hrs by MTT assay; assay type: functional, cell-based; settings: HT-29, 72 h
[5] = test system: MDA-MB-231; assay: Antiproliferative activity against human MDA-MB-231cells after 72 hrs by MTT assay; assay type: functional, cell-based; settings: MDA-MB-231, 72 h
[6] = test system: BJ; assay: Antiproliferative activity against human BJ cells after 72 hrs by MTT assay; assay type: cell-based
[7] = test system: SK-OV-3; assay: Antiproliferative activity against human SKOV3 cells after 72 hrs by MTT assay; assay type: functional, cell-based; settings: SK-OV-3, 72 h
[8] = test system: SK-OV-3; assay: Induction of apoptosis in human SKOV3 cells assessed as increase in cleaved caspase-8 expression levels at IC50 after 72 hrs by Western blot analysis; assay type: functional, cell-based
[9] = test system: SK-OV-3; assay: Induction of apoptosis in human SKOV3 cells assessed as increase in Bid expression levels at IC50 after 72 hrs by Western blot analysis; assay type: functional, cell-based
[10] = test system: SK-OV-3; assay: Induction of apoptosis in human SKOV3 cells at IC50 by Annexin V-FITC/propidium iodide double-staining-based FACS analysis; assay type: functional, cell-based; settings: TDE = time-dependent effect
[11] = test system: SK-OV-3; assay: Induction of apoptosis in human SKOV3 cells assessed as increase in cleaved caspase-3 expression levels at IC50 after 72 hrs by Western blot analysis; assay type: functional, cell-based
[12] = test system: SK-OV-3; assay: Induction of apoptosis in human SKOV3 cells assessed as nuclear fragmentation at IC50 after 48 hrs by Hoechst 33342 staining-based fluorescence microscopic method; assay type: functional, cell-based
[13] = test system: SK-OV-3; assay: Synergistic antiproliferative activity against human SKOV3 cells assessed as combination index at 0.25 uM after 72 hrs in presence of 16 uM carboplatin by MTT assay; assay type: functional
[14] = test system: SK-OV-3; assay: Induction of apoptosis in human SKOV3 cells assessed as decrease in full-length PARP expression levels at IC50 after 72 hrs by Western blot analysis; assay type: functional, cell-based
[15] = test system: SK-OV-3; assay: Synergistic antiproliferative activity against human SKOV3 cells assessed as combination index at 2 uM after 72 hrs in presence of 128 uM carboplatin by MTT assay; assay type: functional
[16] = test system: SK-OV-3; assay: Induction of apoptosis in human SKOV3 cells assessed as decrease in procaspase-8 expression levels at IC50 after 72 hrs by Western blot analysis; assay type: functional, cell-based
[17] = test system: SK-OV-3; assay: Induction of apoptosis in human SKOV3 cells assessed as increase in Bax expression levels at IC50 after 72 hrs by Western blot analysis; assay type: functional, cell-based
[18] = test system: SK-OV-3; assay: Induction of apoptosis in human SKOV3 cells assessed as increase in cleaved PARP expression levels at IC50 after 72 hrs by Western blot analysis; assay type: functional, cell-based
[19] = test system: SK-OV-3; assay: Induction of apoptosis in human SKOV3 cells assessed as decrease in Bcl-2 expression levels at IC50 after 72 hrs by Western blot analysis; assay type: functional, cell-based
[20] = test system: SK-OV-3; assay: Induction of apoptosis in human SKOV3 cells assessed as cell shrinkage at IC50 after 48 hrs by Hoechst 33342 staining-based fluorescence microscopic method; assay type: functional
[21] = test system: SK-OV-3; assay: Synergistic antiproliferative activity against human SKOV3 cells assessed as combination index at 0.5 uM after 72 hrs in presence of 32 uM carboplatin by MTT assay; assay type: functional
[22] = test system: SK-OV-3; assay: Anticlonogenic activity against human SKOV3 cells assessed as reduction in colony formation efficiency treated for 24 hrs followed by incubation in drug free medium for 12 days by crystal violet staining-based assay; assay type: functional, cell-based
[23] = test system: SK-OV-3; assay: Induction of apoptosis in human SKOV3 cells assessed as decrease in procaspase-9 expression levels at IC50 after 72 hrs by Western blot analysis; assay type: functional, cell-based
[24] = test system: SK-OV-3; assay: Synergistic antiproliferative activity against human SKOV3 cells assessed as combination index at 0.125 uM after 72 hrs in presence of 8 uM carboplatin by MTT assay; assay type: functional
[25] = test system: SK-OV-3; assay: Induction of apoptosis in human SKOV3 cells assessed as early apoptotic cells at IC50 after 72 by Annexin V-FITC/propidium iodide double-staining-based FACS analysis (reference value: 4.5%); assay type: functional
[26] = test system: SK-OV-3; assay: Induction of apoptosis in human SKOV3 cells assessed as increase in cleaved caspase-9 expression levels at IC50 after 72 hrs by Western blot analysis; assay type: functional, cell-based
[27] = test system: SK-OV-3; assay: Induction of apoptosis in human SKOV3 cells assessed as formation of apoptotic bodies at IC50 after 48 hrs by Hoechst 33342 staining-based fluorescence microscopic method; assay type: functional, cell-based
[28] = test system: SK-OV-3; assay: Induction of apoptosis in human SKOV3 cells assessed as decrease in procaspase-3 expression levels at IC50 after 72 hrs by Western blot analysis; assay type: functional, cell-based
[29] = test system: SK-OV-3; assay: Synergistic antiproliferative activity against human SKOV3 cells assessed as combination index at 1 uM after 72 hrs in presence of 64 uM carboplatin by MTT assay; assay type: functional
[30] = test system: SK-OV-3; assay: Cell cycle arrest in human SKOV3 cells at IC50 at 24 to 72 hrs by propidium iodide staining-based FACS analysis; assay type: functional
[31] = test system: SK-OV-3; assay: Induction of apoptosis in human SKOV3 cells assessed as nuclear condensation at IC50 after 48 hrs by Hoechst 33342 staining-based fluorescence microscopic method; assay type: functional, cell-based

pIC50 [1]: < 5.00 | pIC50 [2]: < 5.00
Structure (SMILES): CC(=O)Oc1cc2c(c(C)c1OC(C)=O)C(=O)C=C1C2(C)CC[C@@]2(C)[C@@H]3C[C@](C)(C(=O)O)CC[C@]3(C)CC[C@]12C (single isomer, unassigned)

pIC50 [1]: 5.66 | pIC50 [2]: 6.25
Structure (SMILES): CC(=O)Oc1cc2c(c(C)c1OC(C)=O)CC=C1[C@@]2(C)CC[C@@]2(C)[C@@H]3C[C@](C)(C(=O)O)CC[C@]3(C)CC[C@]12C

pIC50 [1]: 5.54 | pIC50 [2]: 5.85
Structure (SMILES): CC(=O)Oc1cc2c(c(C)c1OC(C)=O)CC=C1[C@@]2(C)CC[C@@]2(C)[C@@H]3C[C@](C)(N=C=O)CC[C@]3(C)CC[C@]12C

pIC50 [1]: < 5.00 | pIC50 [2]: < 5.00
Structure (SMILES): CC(=O)Oc1cc2c(c(C)c1OC(C)=O)C(=O)C=C1C2(C)CC[C@@]2(C)[C@@H]3C[C@](C)(N=C=O)CC[C@]3(C)CC[C@]12C (single isomer, unassigned)

pIC50 [1]: < 5.00 | pIC50 [2]: < 5.00
Structure (SMILES): COC(=O)N[C@]1(C)CC[C@]2(C)CC[C@]3(C)C4=CC(=O)c5c(cc(OC)c(O)c5C)[C@]4(C)CC[C@@]3(C)[C@@H]2C1

pIC50 [1]: 5.71 | pIC50 [2]: 6.11
Structure (SMILES): CCOC(=O)N[C@]1(C)CC[C@]2(C)CC[C@]3(C)C4=CC=C5C(=CC(=O)C(O)=C5C)[C@]4(C)CC[C@@]3(C)[C@@H]2C1

pIC50 [3]: 6.23 | pIC50 [4]: 5.99 | pIC50 [1]: 5.98 | pIC50 [5]: 6.28 | pIC50 [2]: 6.49 | pIC50 [7]: 6.35
Structure (SMILES): CCCCCOC(=O)N[C@]1(C)CC[C@]2(C)CC[C@]3(C)C4=CC=C5C(=CC(=O)C(O)=C5C)[C@]4(C)CC[C@@]3(C)[C@@H]2C1
pIC50 [6]: 6.06

pIC50 [1]: < 5.00 | pIC50 [2]: < 5.00
Structure (SMILES): CCOC(=O)N[C@]1(C)CC[C@]2(C)CC[C@]3(C)C4=CC(=O)c5c(cc(OC)c(OC)c5C)[C@]4(C)CC[C@@]3(C)[C@@H]2C1

pIC50 [1]: 5.61 | pIC50 [2]: 6.28
Structure (SMILES): CC1=C(O)C(=O)C=C2C1=CC=C1[C@@]2(C)CC[C@@]2(C)[C@@H]3C[C@](C)(N=C=O)CC[C@]3(C)CC[C@]12C

Structure (SMILES): Cc1c(O)c(O)cc2c1CC=C1[C@@]2(C)CC[C@@]2(C)[C@@H]3C[C@](C)(C(=O)O)CC[C@]3(C)CC[C@]12C [DIHYDROCELASTROL]
pIC50 [1]: 5.50 | pIC50 [2]: 6.14

pIC50 [1]: 5.90 | pIC50 [2]: 6.44
Structure (SMILES): CC(=O)Oc1cc2c(c(C)c1OC(C)=O)C(=O)C=C1[C@@]2(C)CC[C@@]2(C)[C@@H]3C[C@](C)(C(N)=O)CC[C@]3(C)CC[C@]12C

Structure (SMILES): COC(=O)N[C@]1(C)CC[C@]2(C)CC[C@]3(C)C4=CC(=O)c5c(cc(O)c(O)c5C)[C@]4(C)CC[C@@]3(C)[C@@H]2C1
pIC50 [1]: 5.19 | pIC50 [6]: < 4.52 | pIC50 [2]: 5.19 | pIC50 [7]: 5.10

pIC50 [1]: 5.80 | pIC50 [2]: 6.00
Structure (SMILES): CC1=C(O)C(=O)C=C2C1=CC=C1[C@@]2(C)CC[C@@]2(C)[C@@H]3C[C@](C)(NC(=O)OCC(C)(C)CO)CC[C@]3(C)CC[C@]12C

pIC50 [1]: 5.73 | pIC50 [2]: 6.32
Structure (SMILES): CC(=O)Oc1cc2c(c(C)c1OC(C)=O)C(=O)C=C1[C@@]2(C)CC[C@@]2(C)[C@@H]3C[C@](C)(CO)CC[C@]3(C)CC[C@]12C

pIC50 [1]: 5.65 | pIC50 [2]: 6.10
Structure (SMILES): CC1=C(O)C(=O)C=C2C1=CC=C1[C@@]2(C)CC[C@@]2(C)[C@@H]3C[C@](C)(NC(=O)OCC(C)C)CC[C@]3(C)CC[C@]12C

pIC50 [1]: 5.76 | pIC50 [2]: 6.24
Structure (SMILES): COC(=O)N[C@]1(C)CC[C@]2(C)CC[C@]3(C)C4=CC=C5C(=CC(=O)C(O)=C5C)[C@]4(C)CC[C@@]3(C)[C@@H]2C1

pIC50 [1]: 6.00 | pIC50 [2]: 6.40
Structure (SMILES): CCCOC(=O)N[C@]1(C)CC[C@]2(C)CC[C@]3(C)C4=CC=C5C(=CC(=O)C(O)=C5C)[C@]4(C)CC[C@@]3(C)[C@@H]2C1

pIC50 [3]: 5.77 | pIC50 [4]: 5.81 | pIC50 [1]: 6.06 | pIC50 [5]: 5.87 | pIC50 [2]: 6.48 | pIC50 [7]: 6.27
Structure (SMILES): COC(=O)N[C@]1(C)CC[C@]2(C)CC[C@]3(C)C4=CC(=O)c5c(cc(OC(C)=O)c(OC(C)=O)c5C)[C@]4(C)CC[C@@]3(C)[C@@H]2C1
Activity [8]: Active | Activity [9]: inactive | Activity [10]: Tde | Activity [11]: Active | Activity [12]: Active | CI [13]: 0.9285 | Activity [14]: Active | CI [15]: 1.076 | Activity [16]: Active | Activity [17]: inactive | Activity [18]: Active | Activity [19]: inactive | Activity [20]: Active | CI [21]: 0.6273 | Activity [22]: Dose-dependent effect | Activity [23]: inactive | CI [24]: 1.112 | Activity [25]: 29.9% | Activity [26]: inactive | pIC50 [6]: 5.43 | Activity [27]: Active | Activity [28]: Active | CI [29]: 0.7863 | Activity [30]: inactive | Activity [31]: Active

Structure (SMILES): CC1=C(O)C(=O)C=C2C1=CC=C1[C@@]2(C)CC[C@@]2(C)[C@@H]3C[C@](C)(C(=O)O)CC[C@]3(C)CC[C@]12C [CELASTROL]
pIC50 [3]: 5.87 | pIC50 [4]: 5.89 | pIC50 [1]: 5.81 | pIC50 [5]: 5.88 | pIC50 [6]: 5.56 | pIC50 [2]: 6.34 | pIC50 [7]: 5.94

pIC50 [1]: 5.56 | pIC50 [2]: 6.42
Structure (SMILES): CC(=O)Oc1cc2c(c(C)c1OC(C)=O)C(=O)C=C1[C@@]2(C)CC[C@@]2(C)[C@@H]3C[C@](C)(C=O)CC[C@]3(C)CC[C@]12C

pIC50 [1]: < 5.00 | pIC50 [2]: < 5.00
Structure (SMILES): CCOC(=O)N[C@]1(C)CC[C@]2(C)CC[C@]3(C)C4=CC(=O)c5c(cc(O)c(O)c5C)[C@]4(C)CC[C@@]3(C)[C@@H]2C1
